Data as given in the NIST ThermoML archive (doi:10.1021/acs.jced.9b00218).
± gives the expanded uncertainty stated by the source. Each block holds one compound with its values, some of them ahead of it.

Legend:
[1] = wn = mass fraction of the nth substance listed; settings: 298.15 K, 100 kPa, Liquid, Vibrating tube method
[2] = refractive index (Na D-line) (dimensionless); wn = mass fraction of the nth substance listed; settings: 298.15 K, 100 kPa, Liquid, Standard Abbe refractometry

mass density ([1]; w1 = 0.2259): 1280.56 ± 12 kg/m3 | refractive index ([2]; w1 = 0.2259): 1.38898 ± 0.002
Structure (SMILES): O=B[O-].[Na+] [sodium metaborate] + O

mass density ([1]; w1 = 0.0336): 1035.63 ± 12 kg/m3 | refractive index ([2]; w1 = 0.0336): 1.3448 ± 0.002
Structure (SMILES): O=B[O-].[Li+] [lithium metaborate] + O

mass density ([1]; w1 = 0.4388): 1539.08 ± 12 kg/m3 | refractive index ([2]; w1 = 0.4388): 1.42543 ± 0.002
Structure (SMILES): O=B[O-].[K+] [potassium metaborate] + O
